Experimental data from US20220281848A1, “PYRAZOLE-SUBSTITUTED PYRROLIDINONES AS HERBICIDES” (FMC Corporation, priority 2019, published 2022).

Tested on: plants
Experiment: Test D pre-emergence, other plants of Tables D1 and D3
Format: in vivo
Settings: for damage to plant, ALOMY / damage to plant, AVEFA / damage to plant, BEAVA / damage to plant, BROTE / damage to plant, BRSNN / damage to plant, HORVW / damage to plant, SINAR: pre-emergence, 100=total damage, 0=no damage; for ABUTH damage to plant (100=total damage; 0=no damage) / AMARE damage to plant (100=total damage; 0=no damage) / DIGSA damage to plant (100=total damage; 0=no damage) / ECHCG damage to plant (100=total damage; 0=no damage) / ORYSA damage to plant (100=total damage; 0=no damage) / PANMI damage to plant (100=total damage; 0=no damage) / SETFA damage to plant (100=total damage; 0=no damage): preemergent
Summary of the method: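 Damage was rated visually from 0 (none) to 100 (total), at 20 DAA for pre-emergence and 15 d for post-emergence. Plants grew from safener-treated seed in a glasshouse at 24/18° C. or 20/16° C. day/night, 65% humidity, watered twice daily.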

CN1CC(c2cnn(C)c2C(F)(F)F)C(C(=O)Nc2cccc(F)c2F)C1=O (racemic) [Compound 25]
damage to plant, ALOMY (rate 15, 20 DAA): 0
damage to plant, AVEFA (rate 15, 20 DAA): 0
damage to plant, BEAVA (rate 15, 20 DAA): 0
damage to plant, BROTE (rate 15, 20 DAA): 0
damage to plant, BRSNN (rate 15, 20 DAA): 0
damage to plant, HORVW (rate 15, 20 DAA): 0
damage to plant, SINAR (rate 15, 20 DAA): 0
damage to plant, ALOMY (rate 30, 20 DAA): 0
damage to plant, AVEFA (rate 30, 20 DAA): 0
damage to plant, BEAVA (rate 30, 20 DAA): 0
damage to plant, BROTE (rate 30, 20 DAA): 0
damage to plant, BRSNN (rate 30, 20 DAA): 0
damage to plant, HORVW (rate 30, 20 DAA): 0
damage to plant, SINAR (rate 30, 20 DAA): 0
damage to plant, ALOMY (rate 60, 20 DAA): 0
damage to plant, AVEFA (rate 60, 20 DAA): 0
damage to plant, BEAVA (rate 60, 20 DAA): 0
damage to plant, BROTE (rate 60, 20 DAA): 0
damage to plant, BRSNN (rate 60, 20 DAA): 0
damage to plant, HORVW (rate 60, 20 DAA): 0
damage to plant, SINAR (rate 60, 20 DAA): 0
damage to plant, ALOMY (rate 130, 20 DAA): 0
damage to plant, AVEFA (rate 130, 20 DAA): 0
damage to plant, BEAVA (rate 130, 20 DAA): 0
damage to plant, BROTE (rate 130, 20 DAA): 0
damage to plant, BRSNN (rate 130, 20 DAA): 0
damage to plant, HORVW (rate 130, 20 DAA): 0
damage to plant, SINAR (rate 130, 20 DAA): 0
damage to plant, ALOMY (rate 250, 20 DAA): 0
damage to plant, AVEFA (rate 250, 20 DAA): 0
damage to plant, BEAVA (rate 250, 20 DAA): 0
damage to plant, BROTE (rate 250, 20 DAA): 0
damage to plant, BRSNN (rate 250, 20 DAA): 0
damage to plant, HORVW (rate 250, 20 DAA): 0
damage to plant, SINAR (rate 250, 20 DAA): 0
damage to plant, ALOMY (rate 500, 20 DAA): 0
damage to plant, AVEFA (rate 500, 20 DAA): 0
damage to plant, BEAVA (rate 500, 20 DAA): 0
damage to plant, BROTE (rate 500, 20 DAA): 10
damage to plant, BRSNN (rate 500, 20 DAA): 20
damage to plant, HORVW (rate 500, 20 DAA): 0
damage to plant, SINAR (rate 500, 20 DAA): 0
ABUTH damage to plant (100=total damage; 0=no damage) (Rates 15, 20 DAA): 0
AMARE damage to plant (100=total damage; 0=no damage) (Rates 15, 20 DAA): 0
DIGSA damage to plant (100=total damage; 0=no damage) (Rates 15, 20 DAA): 0
ECHCG damage to plant (100=total damage; 0=no damage) (Rates 15, 20 DAA): 0
ORYSA damage to plant (100=total damage; 0=no damage) (Rates 15, 20 DAA): 0
PANMI damage to plant (100=total damage; 0=no damage) (Rates 15, 20 DAA): 0
SETFA damage to plant (100=total damage; 0=no damage) (Rates 15, 20 DAA): 0
ABUTH damage to plant (100=total damage; 0=no damage) (Rates 30, 20 DAA): 0
AMARE damage to plant (100=total damage; 0=no damage) (Rates 30, 20 DAA): 0
DIGSA damage to plant (100=total damage; 0=no damage) (Rates 30, 20 DAA): 60
ECHCG damage to plant (100=total damage; 0=no damage) (Rates 30, 20 DAA): 20
ORYSA damage to plant (100=total damage; 0=no damage) (Rates 30, 20 DAA): 0
PANMI damage to plant (100=total damage; 0=no damage) (Rates 30, 20 DAA): 0
SETFA damage to plant (100=total damage; 0=no damage) (Rates 30, 20 DAA): 0
ABUTH damage to plant (100=total damage; 0=no damage) (Rates 60, 20 DAA): 0
AMARE damage to plant (100=total damage; 0=no damage) (Rates 60, 20 DAA): 0
DIGSA damage to plant (100=total damage; 0=no damage) (Rates 60, 20 DAA): 80
ECHCG damage to plant (100=total damage; 0=no damage) (Rates 60, 20 DAA): 60
ORYSA damage to plant (100=total damage; 0=no damage) (Rates 60, 20 DAA): 0
PANMI damage to plant (100=total damage; 0=no damage) (Rates 60, 20 DAA): 0
SETFA damage to plant (100=total damage; 0=no damage) (Rates 60, 20 DAA): 10
ABUTH damage to plant (100=total damage; 0=no damage) (Rates 130, 20 DAA): 0
AMARE damage to plant (100=total damage; 0=no damage) (Rates 130, 20 DAA): 0
DIGSA damage to plant (100=total damage; 0=no damage) (Rates 130, 20 DAA): 90
ECHCG damage to plant (100=total damage; 0=no damage) (Rates 130, 20 DAA): 90
ORYSA damage to plant (100=total damage; 0=no damage) (Rates 130, 20 DAA): 0
PANMI damage to plant (100=total damage; 0=no damage) (Rates 130, 20 DAA): 0
SETFA damage to plant (100=total damage; 0=no damage) (Rates 130, 20 DAA): 60
ABUTH damage to plant (100=total damage; 0=no damage) (Rates 250, 20 DAA): 0
AMARE damage to plant (100=total damage; 0=no damage) (Rates 250, 20 DAA): 0
DIGSA damage to plant (100=total damage; 0=no damage) (Rates 250, 20 DAA): 90
ECHCG damage to plant (100=total damage; 0=no damage) (Rates 250, 20 DAA): 90
ORYSA damage to plant (100=total damage; 0=no damage) (Rates 250, 20 DAA): 0
PANMI damage to plant (100=total damage; 0=no damage) (Rates 250, 20 DAA): 0
SETFA damage to plant (100=total damage; 0=no damage) (Rates 250, 20 DAA): 60
ABUTH damage to plant (100=total damage; 0=no damage) (Rates 500, 20 DAA): 0
AMARE damage to plant (100=total damage; 0=no damage) (Rates 500, 20 DAA): 0
DIGSA damage to plant (100=total damage; 0=no damage) (Rates 500, 20 DAA): 90
ECHCG damage to plant (100=total damage; 0=no damage) (Rates 500, 20 DAA): 90
ORYSA damage to plant (100=total damage; 0=no damage) (Rates 500, 20 DAA): 0
PANMI damage to plant (100=total damage; 0=no damage) (Rates 500, 20 DAA): 0
SETFA damage to plant (100=total damage; 0=no damage) (Rates 500, 20 DAA): 90
